Test results as given in publication PMC3923664, “A Long-Chain Flavodoxin Protects Pseudomonas aeruginosa from Oxidative Stress and Host Bacterial Clearance” (PLoS Genetics, 2014).

Experiments:
[1] = target: T1, FldA (Escherichia coli, UniProt P61949); assay: UV-visible absorption spectrum of purified holoprotein; type: binding; conditions: co-purified prosthetic group; 50 mM Tris-HCl pH 8.5
T1 construct: purified; preparation not described
T1 sequence (P61949 2-176): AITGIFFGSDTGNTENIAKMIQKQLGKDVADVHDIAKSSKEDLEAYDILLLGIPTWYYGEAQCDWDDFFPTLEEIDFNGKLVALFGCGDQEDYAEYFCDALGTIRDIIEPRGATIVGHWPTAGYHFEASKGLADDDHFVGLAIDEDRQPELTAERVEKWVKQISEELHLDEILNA

[2] = target: T2, IsiB (Nostoc sp. PCC 7119, UniProt P0A3E0); assay: as above; type: binding; conditions: co-purified prosthetic group; 50 mM Tris-HCl pH 8.5
T2 construct: recombinant, expressed in E. coli and purified after Fillat et al; long-chain flavodoxin
T2 sequence (P0A3E0 2-170): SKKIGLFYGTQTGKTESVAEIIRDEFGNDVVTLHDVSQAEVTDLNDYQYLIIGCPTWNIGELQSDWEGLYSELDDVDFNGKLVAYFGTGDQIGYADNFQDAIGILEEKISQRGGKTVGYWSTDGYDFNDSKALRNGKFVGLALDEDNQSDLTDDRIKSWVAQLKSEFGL

`Cc1cc2nc3c(=O)[nH]c(=O)nc-3n(C[C@H](O)[C@H](O)[C@H](O)COP(=O)(O)O)c2cc1C` [FMN] was tested, and the “UV-visible absorption spectrum of purified holoprotein” value [1] was “is strongly red-shifted in the flavodoxins from Anabaena and E. coli (Figure 2A)” and the “UV-visible absorption spectrum of purified holoprotein” value [2] was “is strongly red-shifted in the flavodoxins from Anabaena and E. coli (Figure 2A)”.
